From paper PMC10578352, “Identification of a Protein Arginine Methyltransferase 7 (PRMT7)/Protein Arginine Methyltransferase 9 (PRMT9) Inhibitor” (Journal of Medicinal Chemistry, 2023) come the findings set out here.

Common to all, as to assay type: biochemical
One experiment addresses T1, GST-HsPRMT9 (Homo sapiens, UniProt Q6P2P2).
T1 construct: made in house; host or cells: E. coli
T1 sequence (Q6P2P2 1-845): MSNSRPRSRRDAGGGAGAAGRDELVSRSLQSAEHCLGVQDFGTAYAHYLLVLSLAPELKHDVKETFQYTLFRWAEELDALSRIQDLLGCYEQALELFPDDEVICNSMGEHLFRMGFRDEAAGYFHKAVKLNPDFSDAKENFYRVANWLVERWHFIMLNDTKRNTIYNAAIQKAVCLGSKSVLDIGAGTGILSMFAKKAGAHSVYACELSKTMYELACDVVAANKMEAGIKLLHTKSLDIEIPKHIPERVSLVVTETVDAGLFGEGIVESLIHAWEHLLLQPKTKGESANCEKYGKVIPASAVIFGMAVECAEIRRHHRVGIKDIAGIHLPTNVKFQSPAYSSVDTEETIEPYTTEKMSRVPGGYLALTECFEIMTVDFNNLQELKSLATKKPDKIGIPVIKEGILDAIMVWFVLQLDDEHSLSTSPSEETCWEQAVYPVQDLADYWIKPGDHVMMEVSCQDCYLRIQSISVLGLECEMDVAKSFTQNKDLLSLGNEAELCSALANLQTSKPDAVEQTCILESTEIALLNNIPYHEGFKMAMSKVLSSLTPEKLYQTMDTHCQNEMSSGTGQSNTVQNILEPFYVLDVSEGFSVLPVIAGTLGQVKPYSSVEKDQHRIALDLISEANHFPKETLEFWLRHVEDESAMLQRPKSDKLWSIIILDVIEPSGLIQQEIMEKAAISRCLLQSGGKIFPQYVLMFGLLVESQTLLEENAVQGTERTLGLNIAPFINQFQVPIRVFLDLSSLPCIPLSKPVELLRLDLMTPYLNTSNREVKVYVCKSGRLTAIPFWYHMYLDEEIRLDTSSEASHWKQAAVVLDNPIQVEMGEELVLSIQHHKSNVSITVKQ
The experiment in a line: Radioisotope-based assay (SDS-PAGE, fluorography, densitometry), HsPRMT9. Conditions: substrate GST-SF3B2 (401–550), 37 °C, read-out: % HsPRMT9 residual activity. How it is done: (§1) Based on these outcomes, we resolved to explore the effect on the capability to inhibit PRMT9 enzymatic activity of further reduction of the distance between the pharmacophoric moieties. […] After the experiment was repeated with 100, 250, and 500 μM concentrations of each inhibitor, half inhibition was observed only at a concentration of roughly 250 μM (Figure 4d).
(§2) […]. The experiments were performed as reported in the Experimental procedures section. GST-HsPRMT9 (a) and GST-HsPRMT7 (b) were incubated with human GST-SF3B2 (401–550) peptide or recombinant HsH2B, respectively (1 μg of enzyme, 5 μg of substrate), 0.14 μM [^3H]SAM, and the indicated concentrations of tested compounds at the corresponding optimal reaction temperature (37 °C for HsPRMT9, 15 °C for HsPRMT7). C. elegans GST-tagged enzymes PRMT9 (c) and PRMT7 (d) were incubated with GST-CeSFTB-2 (99–248) fragment or recombinant HsH2B, respectively (1 μg of enzyme, 5 μg of substrate), 0.14 μM [^3H]SAM, and the indicated concentrations of tested compounds at the corresponding optimal reaction temperature (25 °C for CePRMT9, 15 °C for CePRMT7). After SDS-PAGE, the gels were treated as previously described[48] and densitometry analysis was done using ImageJ software, and data was plotted as normalized activity to the no inhibitor controls.
(§3) Human PRMT9, C. elegans PRMT9, human PRMT7, and C. elegans PRMT7 plasmids were sequenced, expressed in E. coli as GST-fusion proteins, and purified as previously described.[48] Substrates were also sequenced and purified as described [human GST-SF3B2 (401–550);[13]C. elegans SFTB-2;[48] human histone H2B (New England Biolabs, M2505S)]. Xenopus laevis histone H2B was expressed in E. coli and purified similarly to what was previously reported by Luger et al.[72]
(§4) Reactions consisting of approximately 1 μg of enzyme (human or C. elegans GST-tagged enzymes PRMT9 and PRMT7), reacted with approximately 5 μg of substrate [for human PRMT9, human GST-SF3B2 401–550 fragment; C. elegans PRMT9 with C. elegans GST-SFTB-2 (99–248) fragment, or recombinant human histone H2B from New England Biolabs (M2505S)], were incubated for the indicated time in reaction buffer {50 mM potassium HEPES buffer, 10 mM NaCl, 1 mM dithiothreitol (DTT), pH 8.0 with 0.7 μM S-adenosyl-L-[methyl-^3H]methionine (^3H-AdoMet, PerkinElmer Life Sciences, 82.7 Ci/mmol, 0.55 mCi/mL in 10 mM H2SO4/EtOH [9:1 (v/v)])} in a final reaction volume of 60 μL. Each reaction was incubated at the corresponding optimal reaction temperature (37 °C for human PRMT9, 25 °C for C. elegans PRMT9, and 15 °C for C. elegans and human PRMT7 enzymes. MTA was dissolved in water, and a wavelength scan was taken to determine the final concentration using the extinction coefficient. The final concentrations used are indicated in the figure legends. […]. EML734, EML736, and EML709 were also dissolved in DMSO, and further dilutions were made in DMSO for the working stocks. For controls, no inhibitor reactions were created by the addition of the respective solvent (water for MTA and DMSO for EPZ015666 and EML inhibitors).
(§5) After the reaction incubations with the various concentrations of inhibitors, the reactions were quenched by adding 0.2 volume of 5× SDS sample loading buffer, and subsequently, the reactions were run on a 12.6% polyacrylamide Tris gel. To collect the radioactive signal, the gels were then treated in the same way as previously described.[48]
(§6) After various exposures were collected to ensure linear detection, densitometry analysis was done using ImageJ software, and data were plotted as normalized activity to the no inhibitor controls.

A further experiment deals with T2, CePRMT7 (Caenorhabditis elegans, UniProt Q9XW42).
T2 construct: made in house; host or cells: E. coli
The experiment in a line: Radioisotope-based assay (SDS-PAGE, fluorography, densitometry), CePRMT7. As to conditions: substrate HsH2B, 15 °C, read-out: % CePRMT7 residual activity. How it is done: as §1, §2, §3, §4, §5, §6

In another experiment the target is T3, PRMT5/MEP50 complex (Homo sapiens, UniProt O14744).
T3 construct: residues PRMT5 2–637, C-terminus, and MEP50 2–342, C-terminus; FLAG (N); purchased Reaction Biology Corporation
The experiment in a line: HotSpot radioisotope-based filter assay, PRMT5. Here is the method: Then, ^3H-SAM (final concentration of 1 μM) was delivered into the reaction mixture to initiate the reaction. After incubation for 60 min at 30 °C, the reaction mixture was delivered to filter-paper for detection (as assessed by scintillation). Data were analyzed using Excel and GraphPad Prism 6.0 software (GraphPad Software Inc., San Diego, CA) for IC50 curve fits using sigmoidal dose vs response - variable slope (four parameters) equations.

As a reminder, the IC50 is the midpoint of a concentration-inhibition curve. Higher therefore signals weaker potency in that assay.

T2 sequence (Q9XW42 whole entry): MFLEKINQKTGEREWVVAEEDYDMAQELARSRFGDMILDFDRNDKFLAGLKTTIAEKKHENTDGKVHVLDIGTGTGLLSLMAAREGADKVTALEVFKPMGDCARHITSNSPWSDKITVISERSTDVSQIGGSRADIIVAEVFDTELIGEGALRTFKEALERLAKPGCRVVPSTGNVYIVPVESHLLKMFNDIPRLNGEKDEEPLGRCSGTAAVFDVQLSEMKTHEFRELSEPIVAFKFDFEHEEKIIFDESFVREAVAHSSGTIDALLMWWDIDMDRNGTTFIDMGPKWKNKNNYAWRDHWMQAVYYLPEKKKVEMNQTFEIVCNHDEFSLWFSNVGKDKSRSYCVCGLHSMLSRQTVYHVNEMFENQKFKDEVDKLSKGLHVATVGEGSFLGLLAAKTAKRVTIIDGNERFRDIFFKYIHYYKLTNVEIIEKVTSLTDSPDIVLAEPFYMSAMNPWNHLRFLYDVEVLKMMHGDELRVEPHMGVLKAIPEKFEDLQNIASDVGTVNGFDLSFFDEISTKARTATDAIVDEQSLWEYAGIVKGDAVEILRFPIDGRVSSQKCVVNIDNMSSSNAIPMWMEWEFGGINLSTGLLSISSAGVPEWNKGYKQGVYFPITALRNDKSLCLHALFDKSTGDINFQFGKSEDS
T3 sequence (O14744 2-637): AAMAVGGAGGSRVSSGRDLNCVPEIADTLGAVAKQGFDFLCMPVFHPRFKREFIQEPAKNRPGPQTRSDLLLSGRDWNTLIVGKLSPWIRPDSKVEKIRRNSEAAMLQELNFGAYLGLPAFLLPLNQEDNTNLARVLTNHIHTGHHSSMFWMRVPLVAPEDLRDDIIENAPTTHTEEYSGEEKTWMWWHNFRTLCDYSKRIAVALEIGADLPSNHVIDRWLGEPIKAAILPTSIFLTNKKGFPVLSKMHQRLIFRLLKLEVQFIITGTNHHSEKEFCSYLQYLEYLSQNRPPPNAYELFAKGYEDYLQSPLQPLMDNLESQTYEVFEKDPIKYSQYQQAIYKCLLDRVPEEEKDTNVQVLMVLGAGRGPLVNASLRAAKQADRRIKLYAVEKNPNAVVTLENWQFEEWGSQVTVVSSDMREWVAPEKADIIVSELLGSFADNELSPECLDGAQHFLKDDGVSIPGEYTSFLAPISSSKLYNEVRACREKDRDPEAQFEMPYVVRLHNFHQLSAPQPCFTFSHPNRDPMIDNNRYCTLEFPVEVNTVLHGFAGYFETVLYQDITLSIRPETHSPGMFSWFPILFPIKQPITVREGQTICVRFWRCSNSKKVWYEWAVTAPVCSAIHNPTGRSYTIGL
T3 sequence (Q9BQA1 2-342 partner limits assumed): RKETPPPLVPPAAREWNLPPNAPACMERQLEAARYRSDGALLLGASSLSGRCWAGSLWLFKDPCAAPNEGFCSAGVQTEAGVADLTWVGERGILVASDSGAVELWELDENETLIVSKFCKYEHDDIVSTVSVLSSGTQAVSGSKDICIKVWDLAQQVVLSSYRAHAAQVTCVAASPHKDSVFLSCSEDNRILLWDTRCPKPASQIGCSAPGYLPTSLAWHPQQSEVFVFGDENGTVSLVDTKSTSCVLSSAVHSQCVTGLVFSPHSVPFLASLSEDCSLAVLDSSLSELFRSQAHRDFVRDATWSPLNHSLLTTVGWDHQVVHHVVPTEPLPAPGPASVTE

Take `COC(=O)c1cc(O)c2cc(NC(=O)NCCCNC(=N)NC[C@H]3O[C@@H](n4cnc5c(N)ncnc54)[C@H](O)[C@@H]3O)ccc2c1` [1a]: on GST-HsPRMT9, the remaining activity at 5 µM came to 30.4%, the remaining activity at 25 µM was 3.42%, the remaining activity at 50 µM came out at 1.37% and the remaining activity at 100 µM was determined as 0.3%. Moreover, on CePRMT7, the remaining activity at 100 µM is 19.6%, the remaining activity at 250 µM was determined as 12.5% and the remaining activity at 500 µM is 0.92%.

Regarding `COC(=O)c1cc(O)c2cc(NC(=O)NCCCCNC(=N)NC[C@H]3O[C@@H](n4cnc5c(N)ncnc54)[C@H](O)[C@@H]3O)ccc2c1` [1b], on GST-HsPRMT9, the remaining activity at 5 µM was 46%, the remaining activity at 25 µM is 13.8%, the remaining activity at 50 µM was found to be 6.15% and the remaining activity at 100 µM was 1.64%. At CePRMT7, the remaining activity at 100 µM worked out at 34.8%, the remaining activity at 250 µM stood at 8.62% and the remaining activity at 500 µM turned out to be 5.19%.

On to `COC(=O)c1cc(O)c2cc(NC(=O)NCCCCCNC(=N)NC[C@H]3O[C@@H](n4cnc5c(N)ncnc54)[C@H](O)[C@@H]3O)ccc2c1` [1c], for which, on GST-HsPRMT9, the remaining activity at 5 µM was 32%, the remaining activity at 25 µM is 6.5%, the remaining activity at 50 µM worked out at 0.52% and the remaining activity at 100 µM came out at 0.34%. At CePRMT7, the remaining activity at 100 µM came to 26.1%, the remaining activity at 250 µM came out at 6.92% and the remaining activity at 500 µM is 2.32%. Also, on PRMT5/MEP50 complex (Figure 2, from IC50 values of ref 31), the “selectivity index for PRMT7 over PRMT5” value was 234 fold.

`COC(=O)c1cc(O)c2cc(NC(=O)NCCCNC(=N)NC[C@H]3O[C@@H](n4cnc5c(N)ncnc54)[C@H](O)[C@@H]3O)cc(C(F)(F)F)c2c1` [1j, Methyl 6-(3-(3-(3-(((2R,3S,4R,5R)-5-(6-Amino-9H-purin-9-yl)-3,4-dihydroxytetrahydrofuran-2-yl)methyl)guanidino)propyl)ureido)-4-hydroxy-8-(trifluoromethyl)-2-naphthoate] came in with an IC50 on PRMT5/MEP50 complex (5 μM histone H2A, 3H-SAM 1 μM) of 1010 nM.
